System: p-IKKa levels in L363 (NIK translocated multiple myeloma) cells
Experiment: Assay 2: Effect of compounds on p-IKKa levels in L363 (NIK translocated multiple myeloma) cells
Type: cell-based
Details: Homo sapiens, L-363, 6 h, read-out: Assay 2 IC50 (nM), p-IKKa (Ser 176/180) in BAFF stimulated L363 cells with MG132, 6 h; average if tested more than once
Experimental: Assay 2: Effect of Compounds on p-IKKa Levels in L363 (NIK Translocated Multiple Myeloma) Cells
All compounds tested were dissolved and serially diluted in DMSO, 1:3 dilution for 11 points in an Echo compatible plate. 100% DMSO was added to columns 12 and 24 of the plate to serve as high and low signal controls. This compound plate was used to spot 20 nL of compound or DMSO into a Greiner 384 well TC plate (781080). The final DMSO concentration was 0.3% (v/v) in cell assays. Human L363 cells (ATCC) were cultured in RPM11640 medium supplemented with GlutaMax, non-essential amino acids, sodium pyruvate and 10% fetal bovine serum. Cells were routinely maintained at densities of 0.2×10^6 cells per ml—2×10^6 cells per mL at 37° C. in a humidified 5% CO2 atmosphere incubator. Cells were passaged twice a week splitting back to obtain the low density. The day before the assay, cells were washed twice in HBSS (Hank's Balanced Salt Solution), resuspended in Dulbecco's Modified Eagle Medium (DMEM)+0.5% IgG and protease free BSA (Jackson Immuno Research Laboratories), +/−250 ng/ml recombinant human B-cell activating factor (BAFF/BLyS/TNFSF13B) and incubated overnight at 37° C. in a humidified 5% CO2 atmosphere (bulk stimulation with or without BAFF). The next day, the cell concentration was adjusted to 1×10^7 cells/ml in DMEM+/−250 ng/ml BAFF +/−10 μM MG132 and plated at 10 μl/well into compound or DMSO spotted 384 well TC plates. Seeded cells were incubated at 37° C. in a humidified 5% CO2 atmosphere for 6 h. After 6 h, the plates were removed from the incubator and cell lysis was achieved by the addition of 2.5 μl 5×lysis buffer containing protease and phosphatase inhibitors, followed by shaking on a plate shaker at room temperature for 15 min. At the end of this incubation, lysed cells were sequentially treated and incubated with acceptor and donor bead mixes according to the manufacturer's protocol for a 1 plate/2-incubation suspension cell assay (AlphaLISA SureFire Ultra p-IKKa (Ser 176/180) Assay Kit (Perkin Elmer). Plates were read using an EnVision Multilabel Plate Reader (Perkin Elmer). Within an experiment, a concentration response curve for each compound was run in duplicate. The signal obtained in the test wells was normalized using high signal (BAFF stimulated cells, DMSO, MG132) and low signal (unstimulated cells, DMSO) controls. To determine the IC50, a sigmoidal curve was fitted to the plot of % inhibition versus Log10 compound concentration.

Structure (SMILES)	IC50
CN1CC[C@@](O)(c2cnn(-c3cccc(-c4ccnc(Nc5cnn6ccccc56)n4)n3)c2)C1=O [Example 98, (R)-3-Hydroxy-1-methyl-3-(1-(6-(2-(pyrazolo[1,5-a]pyridin-3-ylamino)pyrimidin-4-yl)pyridin-2-yl)-1H-pyrazol-4-yl)pyrrolidin-2-one]	50 to 500 nM
CN1CC[C@@](O)(c2cc(-c3cccc(-c4ccnc(Nc5nccn5C)n4)n3)no2)C1=O [Example 398, (R)-3-Hydroxy-1-methyl-3-(3-(6-(2-((1-methyl-1H-imidazol-2-yl)amino)pyrimidin-4-yl)pyridin-2-yl)isoxazol-5-yl)pyrrolidin-2-one]	> 500 nM
CCn1cc(Nc2nccc(-c3cccc(-c4cc([C@]5(O)CCN(C)C5=O)on4)n3)n2)c(C)n1 [Example 250, (R)-3-(3-(6-(2-((1-Ethyl-3-methyl-1H-pyrazol-4-yl)amino)pyrimidin-4-yl)pyridin-2-yl)isoxazol-5-yl)-3-hydroxy-1-methylpyrrolidin-2-one]	< 50 nM
CN1CC[C@](O)(c2nccn2-c2cccc(-c3ccnc(Nc4cnn(C)c4Cl)n3)n2)C1=O (single isomer, unassigned) [Example 106, (*S)-3-(1-(6-(2-((5-Chloro-1-methyl-1H-pyrazol-4-yl)amino)pyrimidin-4-yl)pyridin-2-yl)-1H-imidazol-2-yl)-3-hydroxy-1-methylpyrrolidin-2-one]	> 500 nM
CN1CC[C@@](O)(c2cc(-c3cccc(-c4ccnc(Nc5cnn(CC(F)(F)F)c5)n4)n3)no2)C1=O [Example 42, (R)-3-Hydroxy-1-methyl-3-(3-(6-(2-((1-(2,2,2-trifluoroethyl)-1H-pyrazol-4-yl)amino)pyrimidin-4-yl)pyridin-2-yl)isoxazol-5-yl)pyrrolidin-2-one]	< 50 nM
CN1CC[C@@](O)(c2cc(-c3cccc(-c4ccnc(Nc5cnn6c5NCCC6)n4)c3)no2)C1=O [Example 20, (R)-3-Hydroxy-1-methyl-3-(3-(3-(2-((4,5,6,7-tetrahydropyrazolo[1,5-a]pyrimidin-3-yl)amino)pyrimidin-4-yl)phenyl)isoxazol-5-yl)pyrrolidin-2-one]	> 500 nM
CN1CC[C@@](O)(c2cc(-c3cccc(-c4ccnc(N[C@@H](CO)c5ccccn5)n4)n3)no2)C1=O [Example 387, (R)-3-Hydroxy-3-(3-(6-(2-(((R)-2-hydroxy-1-(pyridin-2-yl)ethyl)amino)pyrimidin-4-yl)pyridin-2-yl)isoxazol-5-yl)-1-methylpyrrolidin-2-one]	> 500 nM
CN1CC[C@@](O)(c2cnn(-c3cccc(-c4ccnc(Nc5cnn(C)c5Cl)n4)n3)c2)C1=O (single isomer, unassigned) [Example 411, (*R)-3-(1-(6-(2-((5-Chloro-1-methyl-1H-pyrazol-4-yl)amino)pyrimidin-4-yl)pyridin-2-yl)-1H-pyrazol-4-yl)-3-hydroxy-1-methylpyrrolidin-2-one]	50 to 500 nM
CN1CC[C@@](O)(c2cc(-c3cccc(-c4ccnc(Nc5cnn(C)c5N)n4)c3)no2)C1=O [Example 21, (R)-3-(3-(3-(2-((5-Amino-1-methyl-1H-pyrazol-4-yl)amino)pyrimidin-4-yl)phenyl)isoxazol-5-yl)-3-hydroxy-1-methylpyrrolidin-2-one]	> 500 nM
CN1CC[C@@](O)(c2cc(-c3cccc(-c4ccnc(Nc5cn(C)nc5OCC(F)(F)F)n4)n3)no2)C1=O [Example 59, (R)-3-Hydroxy-1-methyl-3-(3-(6-(2-((1-methyl-3-(2,2,2-trifluoroethoxy)-1H-pyrazol-4-yl)amino)pyrimidin-4-yl)pyridin-2-yl)isoxazol-5-yl)pyrrolidin-2-one]	< 50 nM
COC(CNc1nccc(-c2cccc(-c3cc([C@]4(O)CCN(C)C4=O)on3)n2)n1)C(F)(F)F (mixture of isomers) [Example 461, (3R)-3-Hydroxy-1-methyl-3-(3-(6-(2-((3,3,3-trifluoro-2-methoxypropyl)amino)pyrimidin-4-yl)pyridin-2-yl)isoxazol-5-yl)pyrrolidin-2-one]	50 to 500 nM
CN1CCn2nc(Nc3nccc(-c4cccc(-c5cc([C@]6(O)CCN(C)C6=O)on5)n4)n3)cc2C1=O [Example 467, (R)-2-((4-(6-(5-(3-Hydroxy-1-methyl-2-oxopyrrolidin-3-yl)isoxazol-3-yl)pyridin-2-yl)pyrimidin-2-yl)amino)-5-methyl-6,7-dihydropyrazolo[1,5-a]pyrazin-4(5H)-one]	50 to 500 nM
CN1CC[C@@](O)(c2cc(-c3cccc(-c4ccnc(Nc5cn[nH]c5)n4)n3)no2)C1=O [Example 40, (R)-3-(3-(6-(2-((1H-Pyrazol-4-yl)amino)pyrimidin-4-yl)pyridin-2-yl)isoxazol-5-yl)-3-hydroxy-1-methylpyrrolidin-2-one]	< 50 nM
C[C@@H](Nc1nccc(-c2cccc(-c3cc([C@]4(O)CCN(C)C4=O)on3)n2)n1)c1ccnn1C (single isomer, unassigned) [Example 67]	50 to 500 nM
CN1CC[C@@](O)(c2cc(-c3cccc(-c4ccnc(Nc5ccn(C)n5)n4)n3)no2)C1=O [Example 47, (R)-3-Hydroxy-1-methyl-3-(3-(6-(2-((1-methyl-1H-pyrazol-3-yl)amino)pyrimidin-4-yl)pyridin-2-yl)isoxazol-5-yl)pyrrolidin-2-one]	< 50 nM
CN1CC[C@@](O)(c2cc(-c3cccc(-c4ccnc(N[C@H]5CCOC5)n4)n3)no2)C1=O [Example 436, (R)-3-Hydroxy-1-methyl-3-(3-(6-(2-(((S)-tetrahydrofuran-3-yl)amino)pyrimidin-4-yl)pyridin-2-yl)isoxazol-5-yl)pyrrolidin-2-one]	50 to 500 nM
COCc1cc(Nc2nccc(-c3cccc(-c4cc([C@]5(O)CCN(C)C5=O)on4)n3)n2)nn1C [Example 475, (R)-3-Hydroxy-3-(3-(6-(2-((5-(methoxymethyl)-1-methyl-1H-pyrazol-3-yl)amino)pyrimidin-4-yl)pyridin-2-yl)isoxazol-5-yl)-1-methylpyrrolidin-2-one]	< 50 nM
CN1CC(F)(F)[C@@](O)(c2cc(-c3cccc(-c4ccnc(Nc5cnn6c5CCCC6)n4)n3)no2)C1=O [Example 239, (R)-4,4-Difluoro-3-hydroxy-1-methyl-3-(3-(6-(2-((4,5,6,7-tetrahydropyrazolo[1,5-a]pyridin-3-yl)amino)pyrimidin-4-yl)pyridin-2-yl)isoxazol-5-yl)pyrrolidin-2-one]	50 to 500 nM
Cc1c(Nc2nccc(-c3cccc(-c4cc([C@@]5(O)C(=O)N(C)CC5(F)F)on4)n3)n2)cnn1CC(C)(C)O [Example 242, (R)-4,4-Difluoro-3-hydroxy-3-(3-(6-(2-((1-(2-hydroxy-2-methylpropyl)-5-methyl-1H-pyrazol-4-yl)amino)pyrimidin-4-yl)pyridin-2-yl)isoxazol-5-yl)-1-methylpyrrolidin-2-one]	50 to 500 nM
CO[C@H]1C[C@@H](Nc2nccc(-c3cccc(-c4cc([C@]5(O)CCN(C)C5=O)on4)n3)n2)C1 [Example 351, (R)-3-Hydroxy-3-(3-(6-(2-(((1s,3S)-3-methoxycyclobutyl)amino)pyrimidin-4-yl)pyridin-2-yl)isoxazol-5-yl)-1-methylpyrrolidin-2-one]	50 to 500 nM
COc1cc(-c2cc([C@]3(O)CCN(C)C3=O)on2)nc(-c2ccnc(Nc3cnn(C)c3)n2)c1 [Example 145, (R)-3-Hydroxy-3-(3-(4-methoxy-6-(2-((1-methyl-1H-pyrazol-4-yl)amino)pyrimidin-4-yl)pyridin-2-yl)isoxazol-5-yl)-1-methylpyrrolidin-2-one]	< 50 nM
CN1CC[C@@](O)(c2cc(-c3cccc(-c4ccnc(Nc5ccn(C)n5)n4)c3F)no2)C1=O [Example 426, (R)-3-(3-(2-Fluoro-3-(2-((1-methyl-1H-pyrazol-3-yl)amino)pyrimidin-4-yl)phenyl)isoxazol-5-yl)-3-hydroxy-1-methylpyrrolidin-2-one]	> 500 nM
CN1CC[C@@](O)(c2cc(-c3cccc(-c4ccnc(NC5CC(F)(F)C5)n4)n3)no2)C1=O [Example 439, (R)-3-(3-(6-(2-((3,3-Difluorocyclobutyl)amino)pyrimidin-4-yl)pyridin-2-yl)isoxazol-5-yl)-3-hydroxy-1-methylpyrrolidin-2-one]	50 to 500 nM
CN1CC[C@@](O)(c2cc(-c3cccc(-c4ccnc(Nc5cnn(C)c5Cl)n4)n3)on2)C1=O [Example 407, (R)-3-(5-(6-(2-((5-Chloro-1-methyl-1H-pyrazol-4-yl)amino)pyrimidin-4-yl)pyridin-2-yl)isoxazol-3-yl)-3-hydroxy-1-methylpyrrolidin-2-one]	< 50 nM

Reference: patent publication US20250282768A1 (Janssen Pharmaceutica NV, priority 2022, published 2025)
